In BindingDB's records for doi:10.1016/j.bmc.2010.06.025 (Wayne State University, 2010):

Key:
D(3) dopamine receptor = D(3) dopamine receptor (Rattus norvegicus, UniProt P19020); assay: Displacement of [3H]spiperone from rat D3 receptor expressed in HEK293 cells
D(2) dopamine receptor = D(2) dopamine receptor (Rattus norvegicus, UniProt P61169); assay: Displacement of [3H]spiperone from rat D2 receptor expressed in HEK293 cells
D(2) dopamine receptor, sequence (P61169 whole entry): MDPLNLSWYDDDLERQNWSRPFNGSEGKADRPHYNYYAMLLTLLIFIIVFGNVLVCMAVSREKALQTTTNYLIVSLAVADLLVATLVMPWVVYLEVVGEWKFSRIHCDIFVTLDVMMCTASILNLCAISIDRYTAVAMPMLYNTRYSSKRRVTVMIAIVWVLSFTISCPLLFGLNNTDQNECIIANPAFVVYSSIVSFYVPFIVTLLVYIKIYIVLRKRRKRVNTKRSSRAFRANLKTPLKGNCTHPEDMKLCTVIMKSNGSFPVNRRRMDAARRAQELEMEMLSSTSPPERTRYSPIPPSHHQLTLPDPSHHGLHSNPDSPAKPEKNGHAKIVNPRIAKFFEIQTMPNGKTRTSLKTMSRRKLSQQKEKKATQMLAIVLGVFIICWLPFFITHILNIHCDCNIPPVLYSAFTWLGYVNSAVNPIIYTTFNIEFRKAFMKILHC

D(3) dopamine receptor, sequence (P19020 whole entry): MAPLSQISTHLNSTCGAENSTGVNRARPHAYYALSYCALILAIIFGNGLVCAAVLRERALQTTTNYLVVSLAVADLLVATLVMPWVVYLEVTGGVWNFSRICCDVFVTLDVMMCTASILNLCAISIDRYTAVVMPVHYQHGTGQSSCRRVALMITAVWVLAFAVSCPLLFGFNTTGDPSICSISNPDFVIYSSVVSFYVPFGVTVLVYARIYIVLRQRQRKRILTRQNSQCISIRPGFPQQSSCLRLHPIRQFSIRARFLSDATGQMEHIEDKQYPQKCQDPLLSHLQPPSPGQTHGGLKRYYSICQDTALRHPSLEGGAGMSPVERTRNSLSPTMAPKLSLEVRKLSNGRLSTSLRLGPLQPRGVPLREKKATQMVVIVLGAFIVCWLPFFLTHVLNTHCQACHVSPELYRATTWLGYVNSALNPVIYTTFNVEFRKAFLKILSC

CCCN(CCN1CCN(c2ccc(-c3ccncc3)cc2)CC1)C1CCc2ccc(O)cc2C1 (stereo not drawn) [(+)-7-(propyl(2-(4-(4-(pyridin-4-yl)-phenyl)piperazin-1-yl)ethyl)amino)-5,6,7,8-tetrahydronaphthalen-2-ol]
Ki (D(3) dopamine receptor): 16.2 nM | Ki (D(2) dopamine receptor): 399 nM
